According to US11413278B2, “Compounds and methods for promoting stress resistance” (priority 2015, dated 2022):
Entries after “also recorded” stand apart in the source; their conditions may differ. Read-outs that look alike come from different tables or passages of the source.

Experiments:
Assay type in all cases: cell-based, human
[1] = tested on: FOXO3; test: qPCR analysis of FOXO3-regulated genes; conditions: for fold induction at 10 µM: Homo sapiens; for K = Sestrin induction: score
Summary of the method: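 FOXO3 target-gene expression quantified by qPCR normalised to B2M, PPIA and GAPDH, in WI-38 cells after 24 h exposure to 10 μM compound. Some runs used cells first transfected 36 h with 10 nM FOXO3 or NRF2 siRNA and replated ~24 h before dosing.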

[2] = tested on: mTOR; test: mTOR inhibition (RPS6 phosphorylation status), In-Cell Western
Summary of the method: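 Read-out is In-Cell Western near-infrared imaging of phospho-RPS6 (Ser-235/236) against total RPS6, using overnight 4° C primary staining and DyLight 680/800 secondaries. Compounds were given to WI-38 cells for 24 hrs at three doses: 5, 10 and 20 μM.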

[3] = tested on: WI-38 cells; test: Propidium iodide (PI) cell-death imaging upon H2O2 stress; conditions: for Assay 7: H2O2-resistant, at 10 uM, validated by propidium iodide (PI) cell-death imaging: w/H2O2, 3 hrs/4 hrs/5 hrs, YES/NO; for cytotoxicity at 10 µM: Homo sapiens, WI-38
[4] = tested on: NRF2; test: in vitro
[5] = 24 h, Assay 10(m), at 10 uM, qPCR, read-out: Induction of FOXO3-regulated genes: CAT normalized fold-change
[6] = 24 h, Assay 10(m), at 10 uM, qPCR, read-out: Induction of FOXO3-regulated genes: DDB1 normalized fold-change
[7] = 24 h, Assay 10(m), at 10 uM, qPCR, read-out: Induction of FOXO3-regulated genes: SESN1 normalized fold-change
[8] = 10 μM, 24 hrs, WI-38 cells, qPCR, normalized to B2M, n = 4, read-out: CAT expression, normalized fold change (FOXO3-regulated gene)
[9] = 10 μM, 24 hrs, WI-38 cells, qPCR, normalized to B2M, n = 4, read-out: SESN1 expression, normalized fold change (FOXO3-regulated gene)
[10] = 10 μM, 24 hrs, WI-38 cells, qPCR, normalized to B2M, n = 4, read-out: TXNIP expression, normalized fold change (FOXO3-regulated gene)
[11] = WI-38 cells, 10 μM, 24 hrs, n=4, qPCR normalized by B2M, read-out: DDB1 Normalized fold change
[12] = WI-38 cells, 10 μM, 24 hrs, n=4, qPCR normalized by B2M, read-out: GADD45A Normalized fold change
[13] = WI-38 cells, 10 μM, 24 hrs, n=4, qPCR normalized by B2M, read-out: SESN1 Normalized fold change
[14] = fold change, qPCR, WI-38 cells, 10 μM, 24 hrs, read-out: Summary of effects on FOXO3-regulated genes: CAT
[15] = fold change, qPCR, WI-38 cells, 10 μM, 24 hrs, read-out: Summary of effects on FOXO3-regulated genes: SESN1
[16] = fold change, qPCR, WI-38 cells, 10 μM, 24 hrs, read-out: Summary of effects on FOXO3-regulated genes: TXNIP
[17] = qPCR, WI-38 cells, 10 μM, n=4, 24 hrs, normalized by B2M, read-out: CAT Normalized fold change
[18] = qPCR, WI-38 cells, 10 μM, n=4, 24 hrs, normalized by B2M, read-out: SOD2 Normalized fold change
[19] = qPCR, WI-38 cells, 10 μM, n=4, 24 hrs, normalized by B2M, read-out: TXNIP Normalized fold change
[20] = H2O2 3 hrs, 10 uM, n = 6, negative control 5.44% ± 0.79%, read-out: Percentage of propidium iodide-positive dead cells (under H2O2 stress treatment), 3 hrs
[21] = pre-treatment at 10 uM, 3.5 hours of H2O2, DMSO control 27.4% ± 6.5%, */**/*** = reduced by one/two/three standard deviations, read-out: Percentage of propidium iodide-positive dead cells (under H2O2 stress treatment), at 10 uM
[22] = WI-38, 24 h, read-out: SESN1 expression
[23] = 10 μM, 24 hrs, WI-38 cells, qPCR, normalized to B2M, n = 4, read-out: DDB1 expression, normalized fold change (FOXO3-regulated gene)
[24] = fold change, qPCR, WI-38 cells, 10 μM, 24 hrs, read-out: Summary of effects on FOXO3-regulated genes: DDB1
[25] = H2O2 4 hrs, 10 uM, n = 6, negative control 16.81% ± 1.42%, read-out: Percentage of propidium iodide-positive dead cells (under H2O2 stress treatment), 4 hrs

Q: For `O=[N+]([O-])c1ccccc1S(=O)(=O)Nc1cccc2cccnc12` [Gr-3A], which “E = Potential FOXO3 Activation” value ([1]; 2-point score) is on record?
A: 0

Q: And the fold induction at 10 µM [1, 5]?
A: 0.83

Q: And the fold induction at 10 µM [1, 6]?
A: 0.81

Q: What about the fold induction at 10 µM [1, 7] of the same compound?
A: 1.21

Q: What about the fold induction at 10 µM ([1]; 24 h, Assay 10(m), at 10 uM, qPCR, read-out: Induction of FOXO3-regulated genes: TXNIP normalized fold-change) of the same compound?
A: 0.64

Q: And the fold induction at 10 µM [1, 8]?
A: 0.87

Q: And the fold induction at 10 µM [1, 9]?
A: 1.18

Q: What about the fold induction at 10 µM [1, 10] of the same compound?
A: 0.75

Q: What about the fold induction at 10 µM [1, 11] of the same compound?
A: 0.969

Q: What about the fold induction at 10 µM [1, 12] of the same compound?
A: 1.4

Q: And the fold induction at 10 µM [1, 13]?
A: 1.18

Q: What about the fold induction at 10 µM [1, 14] of the same compound?
A: 0.87

Q: And the fold induction at 10 µM [1, 15]?
A: 1.18

Q: What about the fold induction at 10 µM [1, 16] of the same compound?
A: 0.75

Q: What about the fold induction at 10 µM [1, 17] of the same compound?
A: 0.871

Q: And the fold induction at 10 µM [1, 18]?
A: 1.48

Q: What about the fold induction at 10 µM [1, 19] of the same compound?
A: 0.754

Q: And the “K = Sestrin induction” value [1]?
A: 0

Q: And the “E = Potential FOXO3 Activation” value ([1]; summary score)?
A: 0

Q: What about the “G = mTOR down-regulation” value ([2]; 2-point score) of the same compound?
A: 0

Q: And the “G = mTOR down-regulation” value ([2]; summary score)?
A: 0

Q: And the “Assay 7: H2O2-resistant, at 10 uM, validated by propidium iodide (PI) cell-death imaging” value ([3]; 10 uM)?
A: YES

Q: And the cytotoxicity at 10 µM [3, 20]?
A: 5.54%

Q: What about the cytotoxicity at 10 µM [3, 21] of the same compound?
A: 12.4%

Q: And the “J = NRF2-dependency for H2O2-resistance” value ([4]; score)?
A: 0

Q: And the “J = NRF2-dependency for H2O2-resistance” value ([4]; summary score)?
A: 0

Q: What does the source list for `O=C(Nc1cccc(Cl)c1)c1ccc([N+](=O)[O-])o1` [Gr-1D]?
A: E = Potential FOXO3 Activation ([1]; 2-point score): 0; fold induction at 10 µM [1, 6]: 1.13; fold induction at 10 µM [1, 7]: 1.91; fold induction at 10 µM [1, 22]: > 1.5; fold induction at 10 µM [1, 23]: 1.18; fold induction at 10 µM [1, 9]: 1.73; fold induction at 10 µM [1, 10]: 0.62; fold induction at 10 µM [1, 11]: 1.18; fold induction at 10 µM [1, 12]: 1.92; fold induction at 10 µM [1, 13]: 1.73; fold induction at 10 µM [1, 24]: 1.18; fold induction at 10 µM [1, 15]: 1.73; fold induction at 10 µM [1, 16]: 0.62; fold induction at 10 µM [1, 17]: 0.953; fold induction at 10 µM [1, 18]: 1.42; fold induction at 10 µM [1, 19]: 0.621; K = Sestrin induction [1]: 1; E = Potential FOXO3 Activation ([1]; summary score): 0; G = mTOR down-regulation ([2]; 2-point score): 0; G = mTOR down-regulation ([2]; summary score): 0; Assay 7: H2O2-resistant, at 10 uM, validated by propidium iodide (PI) cell-death imaging ([3]; 10 uM): YES; cytotoxicity at 10 µM [3, 20]: 6.27%; cytotoxicity at 10 µM [3, 25]: 5.83%; cytotoxicity at 10 µM [3, 21]: 36.7%; J = NRF2-dependency for H2O2-resistance ([4]; score): 0; J = NRF2-dependency for H2O2-resistance ([4]; summary score): 0

Q: `O=C(/C(=C/c1ccc(Cl)cc1)c1nc2ccccc2[nH]1)c1ccccc1` [Gr-4D] was tested. Which “Induction of at least two of five FOXO3-regulated genes (SOD2, GADD45A, CAT, DDB1, TXNIP)” value ([1]; 10 μM, 24 hrs, WI-38) did it give?
A: could induce both FOXO3- and NRF2-regulated genes; also recorded: significant induction; also recorded: significant, induction

Q: And the “SOD2 expression, normalized fold change (FOXO3-regulated gene)” value ([1]; 10 μM, 24 hrs, WI-38 cells, qPCR, normalized to B2M, n = 4)?
A: SOD2 1.20, fold

Q: What about the “E = Potential FOXO3 Activation” value ([1]; 2-point score) of the same compound?
A: 0

Q: What about the fold induction at 10 µM [1, 5] of the same compound?
A: 1.37

Q: What about the fold induction at 10 µM [1, 6] of the same compound?
A: 1.41

Q: And the fold induction at 10 µM ([1]; 24 h, Assay 10(m), at 10 uM, qPCR, read-out: Induction of FOXO3-regulated genes: GADD45A normalized fold-change)?
A: 2.11

Q: And the fold induction at 10 µM [1, 7]?
A: 2.16

Q: What about the fold induction at 10 µM ([1]; 24 h, Assay 10(m), at 10 uM, qPCR, read-out: Induction of FOXO3-regulated genes: SOD2 normalized fold-change) of the same compound?
A: 1.2

Q: What about the fold induction at 10 µM [1, 22] of the same compound?
A: > 1.5

Q: And the fold induction at 10 µM [1, 8]?
A: 1.37

Q: What about the fold induction at 10 µM [1, 23] of the same compound?
A: 1.41

Q: What about the fold induction at 10 µM ([1]; 10 μM, 24 hrs, WI-38 cells, qPCR, normalized to B2M, n = 4, read-out: GADD45A expression, normalized fold change (FOXO3-regulated gene)) of the same compound?
A: 2.11

Q: What about the fold induction at 10 µM [1, 9] of the same compound?
A: 2.16

Q: What about the fold induction at 10 µM [1, 11] of the same compound?
A: 1.41

Q: And the fold induction at 10 µM [1, 12]?
A: 2.11

Q: And the fold induction at 10 µM [1, 13]?
A: 2.16

Q: What about the fold induction at 10 µM [1, 14] of the same compound?
A: 1.37

Q: What about the fold induction at 10 µM [1, 24] of the same compound?
A: 1.41

Q: And the fold induction at 10 µM ([1]; fold change, qPCR, WI-38 cells, 10 μM, 24 hrs, read-out: Summary of effects on FOXO3-regulated genes: GADD45A)?
A: 2.11

Q: What about the fold induction at 10 µM [1, 15] of the same compound?
A: 2.16

Q: And the fold induction at 10 µM [1, 17]?
A: 1.37

Q: What about the fold induction at 10 µM [1, 18] of the same compound?
A: 1.2

Q: And the fold induction at 10 µM [1, 19]?
A: 1.09

Q: And the “Summary of effects on FOXO3-regulated genes: SOD2” value ([1]; fold change, qPCR, WI-38 cells, 10 μM, 24 hrs)?
A: SOD2 1.20,

Q: What about the “K = Sestrin induction” value [1] of the same compound?
A: 1

Q: What about the “E = Potential FOXO3 Activation” value ([1]; summary score) of the same compound?
A: 0

Q: And the “G = mTOR down-regulation” value ([2]; 2-point score)?
A: 0

Q: What about the “G = mTOR down-regulation” value ([2]; summary score) of the same compound?
A: 0

Q: What about the “Assay 7: H2O2-resistant, at 10 uM, validated by propidium iodide (PI) cell-death imaging” value ([3]; 10 uM) of the same compound?
A: YES

Q: What about the cytotoxicity at 10 µM [3, 20] of the same compound?
A: 1.58%

Q: And the cytotoxicity at 10 µM [3, 25]?
A: 7.44%

Q: And the cytotoxicity at 10 µM [3, 21]?
A: 19.8%

Q: What about the “NRF2-dependency for H2O2-resistance, at 10 uM (experiment 3) - with & without H2O2” value ([4]; 10 uM, experiment 3, with & without H2O2) of the same compound?
A: Partial

Q: What about the “NRF2-dependency for H2O2-resistance (experiment 3)” value ([4]; 10 uM, with & without H2O2, NRF2 knockdown in WI-38 cells, YES = resistance reduced by at least 50%, partial = 25% to 50%) of the same compound?
A: Partial

Q: And the “NRF2-dependency of H2O2-resistance (NRF2 siRNA knockdown)” value ([4]; at least 2 of 3 independent experiments)?
A: partially dependent on NRF2

Q: What about the “J = NRF2-dependency for H2O2-resistance” value ([4]; score) of the same compound?
A: 0

Q: And the “J = NRF2-dependency for H2O2-resistance” value ([4]; summary score)?
A: 0
